Here are results for nine compounds from patent US9862711B2, “Pyrazine derivatives as phosphatidylinositol 3-kinase inhibitors” (NOVARTIS AG, priority 2014, dated 2018).

What is called IC50 is the concentration at which inhibition is half-maximal.

Sequence of PI 3-kinase alpha (P42336 21-1068): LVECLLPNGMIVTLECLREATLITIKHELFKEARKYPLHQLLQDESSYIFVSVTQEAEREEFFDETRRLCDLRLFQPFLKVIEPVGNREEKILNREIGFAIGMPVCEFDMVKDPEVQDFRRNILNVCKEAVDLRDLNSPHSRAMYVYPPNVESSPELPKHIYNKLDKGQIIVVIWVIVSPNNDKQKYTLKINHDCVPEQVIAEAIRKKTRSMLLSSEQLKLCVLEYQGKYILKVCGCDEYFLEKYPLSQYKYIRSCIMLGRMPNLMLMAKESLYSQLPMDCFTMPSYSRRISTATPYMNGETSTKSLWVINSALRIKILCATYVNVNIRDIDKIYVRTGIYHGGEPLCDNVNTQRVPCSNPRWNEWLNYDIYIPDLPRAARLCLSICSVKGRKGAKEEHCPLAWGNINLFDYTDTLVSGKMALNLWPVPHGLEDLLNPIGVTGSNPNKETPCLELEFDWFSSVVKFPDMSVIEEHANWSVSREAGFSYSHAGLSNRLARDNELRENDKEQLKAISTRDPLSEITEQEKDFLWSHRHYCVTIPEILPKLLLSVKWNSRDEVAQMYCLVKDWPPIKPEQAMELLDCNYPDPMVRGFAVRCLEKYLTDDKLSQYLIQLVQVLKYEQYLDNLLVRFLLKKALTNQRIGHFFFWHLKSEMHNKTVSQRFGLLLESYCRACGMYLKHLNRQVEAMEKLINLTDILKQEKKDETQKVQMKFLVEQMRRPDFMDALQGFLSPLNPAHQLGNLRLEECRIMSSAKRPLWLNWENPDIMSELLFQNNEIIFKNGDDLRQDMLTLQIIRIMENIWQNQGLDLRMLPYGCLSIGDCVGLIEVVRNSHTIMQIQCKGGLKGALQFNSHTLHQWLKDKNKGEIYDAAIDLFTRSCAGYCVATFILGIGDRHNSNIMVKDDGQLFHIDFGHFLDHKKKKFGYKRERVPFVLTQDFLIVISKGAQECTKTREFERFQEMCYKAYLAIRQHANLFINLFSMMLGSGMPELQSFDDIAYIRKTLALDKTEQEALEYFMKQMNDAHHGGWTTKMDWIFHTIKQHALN

The assay has as its target PI 3-kinase alpha (Homo sapiens (Human), UniProt P42336). Description: Kinase Glo Luminescent Kinase Assay (Assay A). It counts as biochemical. Particulars: 1 μM ATP, read-out: Assay A PI3Kα IC50. An excerpt: Kinase Glo Luminescent Kinase Assay (Kglo) for PI 3-Kinase Alpha (A), Pb 3-Kinase Beta (B), Vps34 (C), PI 4-Kinase Beta (D)
The luminescence-based ATP detection reagent KinaseGlo was obtained from Promega, (Cat. No. V6714, Lot No. 236161) through Catalys, Wallisellen, Switzerland. L-alpha-phosphatidylinositol (PI, liver, bovine) was obtained from Avanti Polar Lipid (Cat. No. 840042C, Lot#LPI-274), Phosphatidylinositol-4,5-bisphosphate (PIP(4,5)2) was also obtained from Avanti Polar Lipid (Cat. No. 840046X). L-α-Phosphatidylserine (PS) was obtained from Avanti Polar Lipid (Cat. No. 840032C), n-Octylglucoside from Avanti Polar Lipid (Cat. No. 10634425001). Luminescence is a well established readout to determine ATP concentrations and can thus be used to follow the activity of many kinases regardless of their substrate. The Kinase Glo Luminescent Kinase Assay (Promega, Madison/WI, USA) is a homogeneous HTS method of measuring kinase activity by quantifying the amount of ATP remaining in solution following a kinase reaction.
50 nL of compound dilutions were dispensed onto black 384-well low volume Non Binding Styrene (NBS) plates (Costar Cat. No. NBS#3676). L-α-phosphatidylinositol (PI), provided as 10 mg/ml solution in methanol, was transferred into a glass tube and dried under a nitrogen beam. It was then resuspended in 3% OctylGlucoside (1-O-n-octyl-beta-D-glucopyranoside) by vortexing and stored at 4° C. 5 μL of a mix of PI/OctylGlucoside with the PI 3-kinase alpha and PI 3-kinase beta subtypes, or Vps34 or PI 4-kinase beta were added. Kinase reactions were started by the addition of 5 μl of an ATP-mix containing in a final volume 10 μL 10 mM TRIS-HCl pH 7.5, 3 mM MgCl2, 50 mM NaCl, 0.05% CHAPS, 1 mM DTT and 1 μM ATP at room temperature. Reactions were stopped with 10 μl of KinaseGlo and plates were read 10 mins later in a Synergy2 reader using an integration time of 0.1 seconds per well. 2.5 μM of NVP-BGT226 (1-(3-(trifluoromethyl)-4-(piperazin-1-yl)phenyl)-8-(6-methoxypyridin-3-yl)-3-methyl-1H-imidazo[4,5-c]quinolin-2(3H)-one) was added to the assay plates to generate the 100% inhibition of the kinase reaction, and the 0% inhibition was given by the solvent vehicle (90% DMSO in water). (1-(3-(trifluoromethyl)-4-(piperazin-1-yl)phenyl)-8-(6-methoxypyridin-3-yl)-3-methyl-1H-imidazo[4,5-c]quinolin-2(3H)-one) was used as a reference compound and included in all assay plates in the form of 16 dilution points in duplicate.
IC50 values of the percentage inhibition of each compound at 8 concentrations (10, 3.0, 1.0, 0.3, 0.1, 0.030, 0.010 and 0.003 μM) n=2 were derived by fitting a sigmoidal dose-response curve to a plot of assay readout over inhibitor concentration as described. All fits were performed with the program XLfit4 (ID Business Solutions, Guildford, UK).
On the technique in general: In Kinase-Glo more light means more ATP remaining.
For `Cc1ncc(-c2cncc(-c3cc(S(=O)(=O)NCCCO)ccc3C)n2)s1` [Example 1, N-(3-Hydroxy-propyl)-4-methyl-3-[6-(2-methyl-thiazol-5-yl)-pyrazin-2-yl]-benzenesulfonamide], the IC50 came to 0.19 µM. As for `Cc1ccc(S(=O)(=O)NCC(C)(C)O)cc1-c1cncc(-c2cn(C)nc2C)n1` [Example 2, 3-[6-(1,3-Dimethyl-1H-pyrazol-4-yl)-pyrazin-2-yl]-N-(2-hydroxy-2-methyl-propyl)-4-methyl-benzenesulfonamide], the IC50 stood at 0.05 µM. The result for `Cc1ccc(S(=O)(=O)NCCC(C)(C)O)cc1-c1cncc(-c2cn(C)nc2C)n1` [Example 3, 3-[6-(1,3-Dimethyl-1H-pyrazol-4-yl)-pyrazin-2-yl]-N-(3-hydroxy-3-methyl-butyl)-4-methyl-benzenesulfonamide] reads 0.08 µM. The result for `Cc1ccc(S(=O)(=O)NCC2(C)COC2)cc1-c1cncc(-c2cn(C)nc2C)n1` [Example 4, Trans 3-[6-(1,3-Dimethyl-1H-pyrazol-4-yl)-pyrazin-2-yl]-4-methyl-N-(3-methyl-oxetan-3-ylmethyl)-benzenesulfonamide] reads 0.06 µM; that for `Cc1ncc(-c2cncc(-c3cc(S(=O)(=O)N[C@H]4CC[C@H](O)CC4)ccc3C)n2)s1` [Example 5, Trans N-(4-Hydroxycyclohexyl)-4-methyl-3-(6-(2-methylthiazol-5-yl)pyrazin-2-yl)benzenesulfonamide], 0.15 µM. Next, `Cc1ccc(S(=O)(=O)NCC(C)(C)CO)cc1-c1cncc(-c2cn(C)nc2C)n1` [Example 8, 3-[6-(1,3-Dimethyl-1H-pyrazol-4-yl)-pyrazin-2-yl]-N-(3-hydroxy-2,2-dimethyl-propyl)-4-methyl-benzenesulfonamide]: 0.06 µM; `Cc1ccc(S(=O)(=O)NCCC(C)(C)O)cc1-c1cncc(-c2cnn(CCN3CCOCC3)c2)n1` [Example 9, N-(3-Hydroxy-3-methyl-butyl)-4-methyl-3-{6-[1-(2-morpholin-4-yl-ethyl)-1H-pyrazol-4-yl]-pyrazin-2-yl}-benzenesulfonamide]: 0.26 µM; `Cc1ccc(S(=O)(=O)NCCC(C)(C)O)cc1-c1cncc(-c2cn(CCN3CCOCC3)nc2C)n1` [Example 10, N-(3-Hydroxy-3-methyl-butyl)-4-methyl-3-{6-[3-methyl-1-(2-morpholin-4-yl-ethyl)-1H-pyrazol-4-yl]-pyrazin-2-yl}-benzenesulfonamide]: 0.07 µM.

Take `Cc1ccc(S(=O)(=O)N[C@H]2CC[C@H](O)CC2)cc1-c1cncc(-c2cccnc2)n1` [Example 11, Trans N-(4-Hydroxy-cyclohexyl)-4-methyl-3-(6-pyridin-3-yl-pyrazin-2-yl)-benzenesulfonamide]: the IC50 was found to be 0.4 µM.
